pEC50, pKi: −log10 of the molar value. Read-outs that look alike come from different tables or passages of the source. A value given as a limit tells only on which side of the number the result lay.

In assay [1] the target is T1, Muscarine M4 (GPCR-A-MA-ACH M4) (Homo sapiens, UniProt P08173).
T1 construct: expressed in transfected cells; host or cells: CHO cells
T1 sequence (P08173 1-479): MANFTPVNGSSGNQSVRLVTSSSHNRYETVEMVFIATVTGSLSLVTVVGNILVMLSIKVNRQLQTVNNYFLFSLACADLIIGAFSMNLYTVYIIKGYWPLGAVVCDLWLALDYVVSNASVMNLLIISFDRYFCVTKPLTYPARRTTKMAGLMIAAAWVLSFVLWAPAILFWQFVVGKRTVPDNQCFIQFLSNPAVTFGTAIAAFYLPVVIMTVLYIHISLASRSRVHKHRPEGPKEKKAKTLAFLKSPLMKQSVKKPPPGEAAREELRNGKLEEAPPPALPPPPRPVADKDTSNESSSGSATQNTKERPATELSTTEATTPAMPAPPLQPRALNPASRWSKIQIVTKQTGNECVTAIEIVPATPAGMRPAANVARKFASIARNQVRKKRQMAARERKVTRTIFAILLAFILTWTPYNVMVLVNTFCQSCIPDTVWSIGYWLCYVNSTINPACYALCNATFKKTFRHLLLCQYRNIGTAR
Description: Muscarine M4 receptor binding, 3H-4DAMP. The conditions noted are these: human M4, CHO cells, ligand 0.2 nM, 60 min/22° C.; for Ki: read-out: RB Musc. M4 3H-DAMP pKi (converted). Here is the method:
(§1) Compounds were dissolved in DMSO (10 mM) and diluted in assay buffer to test concentration. Prime testing was at 10 μM; for actives (PI, percent inhibition with respect to total and non-specific binding >40%) testing was continued at lower concentrations in 10-fold dilutions: 1 μM, 0.1 μM, etc.
(§2) Following incubation of compound with the receptor preparation (from ‘Tissue’) and the Ligand at the time and temperature indicated, the receptor preparations were rapidly filtered under vacuum through glass fibre filters; the filters were washed extensively with an ice-cold buffer using a harvester. Bound radioactivity was measured by scintillation counting using a liquid scintillation cocktail.
(§3) Results were expressed as percentage of total Ligand binding and that of Non Specific Binding, per concentration of Compound tested (duplicates); from the concentration—displacement curves IC50 values were determined by non-linear regression analysis using Hill equation curve fitting. The inhibition constants (Ki) were calculated from the Cheng-Prushoff equation Ki=IC50/(1+L/Kd), where L is the concentration of radioligand in the assay, and Kd the affinity of the radioligand for the receptor. Results were expressed as pKi's, means±SD of at least 2 separate experiments; i.e. outliers (outside+/−1 std of mean) and discrepancies were excluded.

Assay [2] has as its target T1, Muscarine M4 (GPCR-A-MA-ACH M4). Description: Muscarine M4 receptor binding, 3H-Oxotremorine. The conditions noted are these: for Ki: read-out: RB Musc. M4 3H-Oxotremorine pKi (converted). Here is the method: as §1, §2, §3
Assay [3] has the same target. Description: Muscarine M4 cell-based functional assay (CHO cells, Ca2+ - Aequorin luminescence). The conditions noted are these: for EC50: read-out: Cell funct. Musc. M4 Agonism pEC50 (converted). Here is the method:
Compounds were dissolved in DMSO (10 mM) and diluted in assay buffer to test concentration. Prime testing was at 1 μM; for actives in antagonist mode (PI, percent inhibition with respect to reference agonist and blank>30%) as well as actives in agonist mode (PS, percent stimulation with respect to reference agonist and blank>30%) testing was continued at lower concentrations in 10-fold dilutions: 0.1 μM, 0.01 μM, etc.
Cells were incubated with compound and the response indicated was measured.
The results are expressed as a percent of reference agonist values and blanks in the presence of the test compound, percent stimulation for agonist mode; for the antagonist mode (test compound in the presence of reference agonist) as percent inhibition. The EC50 values (concentration causing a half-maximal stimulation of control values), IC50 values (concentration causing a half-maximal inhibition of control values) were determined by non-linear regression analysis of the concentration-response curves using Hill equation curve fitting.

Assay [4] concerns the target T2, Muscarine M1 (GPCR-A-MA-ACH M1) (Homo sapiens, UniProt P11229).
T2 construct: expressed in transfected cells; host or cells: CHO cells
T2 sequence (P11229 1-460): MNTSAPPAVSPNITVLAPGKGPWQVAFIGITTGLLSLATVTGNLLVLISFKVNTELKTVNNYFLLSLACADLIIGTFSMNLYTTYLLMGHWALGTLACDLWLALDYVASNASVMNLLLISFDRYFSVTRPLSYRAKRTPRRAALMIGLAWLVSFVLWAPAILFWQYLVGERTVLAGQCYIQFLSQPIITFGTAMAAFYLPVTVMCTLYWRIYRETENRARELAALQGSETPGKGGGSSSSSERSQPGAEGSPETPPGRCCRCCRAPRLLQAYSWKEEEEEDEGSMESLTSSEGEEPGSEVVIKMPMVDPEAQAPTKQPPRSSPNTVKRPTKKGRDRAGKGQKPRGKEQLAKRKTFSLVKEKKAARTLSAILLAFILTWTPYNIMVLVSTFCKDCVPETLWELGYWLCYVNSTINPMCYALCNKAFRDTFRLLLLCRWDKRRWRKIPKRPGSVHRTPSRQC
Description: Muscarine M1 receptor binding, 3H-Pirenzepine. Particulars: human M1, CHO cells, ligand 2 nM, 60 min/22° C.; for Ki: read-out: RB Musc. M1 3H-Pirenzepine pKi (converted). Here is the method: as §1, §2, §3

The target in assay [5] is T2, Muscarine M1 (GPCR-A-MA-ACH M1). Description: Muscarine M1 cell-based functional assay (CHO cells, Ca2+ - FLIPR Fluorimetry). The conditions noted are these: human M1, CHO cells; agonist mode, reference agonist acetylcholine; read-out: Cell funct. Musc. M1 Agonism pEC50 (converted).
[6] abbreviates: human M4, CHO cells, agonist mode, reference agonist oxotremorine.
The mark [7] stands for this setting: human M4, CHO cells, receptor binding, ligand 6 nM, 30 min/25° C.

With `CCCCSc1c[nH]nc1[C@@H]1CN2CCC[C@H]1C2` (relative stereo) [Compound 60B, Endo-6-(4-butylsulfanyl-1H-pyrazol-3-yl)-1-azabicyclo[3.2.1]octane], the Ki in assay [1] was 158 nM; in assay [4], 398 nM. Moreover, the pKi in assay [2] was 6.60. The EC50 in assay [3] (setting [6]) was greater than 10000 nM; in assay [5], greater than 1000 nM.

Regarding `CCCCCc1c[nH]nc1C1=CCCN(C)C1` [Compound 9, 3-(4-Pentyl-1H-pyrazol-3-yl)-1,2,5,6-tetrahydro-1-methylpyridine], the figures for the Ki in assay [1], in assay [2] (setting [7]) and in assay [4] were 316 nM, 398 nM and 1260 nM, respectively. Further, the EC50 in assay [3] (setting [6]) was greater than 10000 nM; in assay [5], 126 nM.

On to `CCCCc1c[nH]nc1C1=CCCN(C)C1` [Compound 16, 3-(4-Butyl-1H-pyrazol-3-yl)-1,2,5,6-tetrahydro-1-methylpyridine], for which the EC50 in assay [3] (setting [6]) is greater than 10000 nM.

Turning to `CCCCCCSc1c[nH]nc1C1=CCCN(C)C1` [Compound 22H, 3-(4-Hexylsulfanyl-1H-pyrazol-3-yl)-1,2,5,6-tetrahydro-1-methylpyridine], the Ki in assay [1] is 63.1 nM; in assay [2] (setting [7]), 126 nM; in assay [4], 200 nM. The EC50 in assay [3] (setting [6]) was 10 nM; in assay [5] it was 126 nM.

For the compound `CN1CCC=C(c2n[nH]cc2SCCCc2ccccc2)C1` [Compound 22I, 3-[4-(3-Phenyl-propylsulfanyl)-1H-pyrazol-3-yl]-1,2,5,6-tetrahydro-1-methylpyridine], the Ki was 251 nM in assay [1], 100 nM in assay [2] (setting [7]) and 794 nM in assay [4]. For the same compound, the EC50 in assay [3] (setting [6]) was 251 nM; in assay [5], 100 nM.

Consider `CN1CCC=C(c2n[nH]cc2SCC=Cc2ccccc2)C1` [Compound 22K, 3-[4-(3-Phenyl-allylsulfanyl)-1H-pyrazol-3-yl]-1,2,5,6-tetrahydro-1-methylpyridine], for which the Ki in assay [1] was 631 nM; in assay [2] (setting [7]) it was 398 nM; in assay [4] it was 1260 nM. Moreover, the EC50 was 1260 nM in assay [3] (setting [6]) and 100 nM in assay [5].

Turning to `CN1CCC=C(c2n[nH]cc2SCc2ccco2)C1` [Compound 22M, 3-[4-(Furan-2-yl-methylsulfanyl)-1H-pyrazol-3-yl]-1,2,5,6-tetrahydro-1-methylpyridine], the Ki in assay [1] was 398 nM; in assay [2] (setting [7]), 251 nM; in assay [4] it was 501 nM. Besides, in assay [3] (setting [6]), the EC50 is greater than 10000 nM.

As to `CN1CCC=C(c2n[nH]cc2SCc2ccccc2)C1` [Compound 22N, 3-(4-Benzylsulfanyl-1H-pyrazol-3-yl)-1,2,5,6-tetrahydro-1-methylpyridine], the Ki in assay [1] was 251 nM; in assay [2] (setting [7]), 251 nM; in assay [4] it was 398 nM. In assay [3] (setting [6]), the EC50 was greater than 10000 nM.

As to `COCCOCCSc1c[nH]nc1C1=CCCN(C)C1` [Compound 22P, 3-{4-[2-(2-Methoxy-ethoxy)-ethylsulfanyl]-1H-pyrazol-3-yl}-1,2,5,6-tetrahydro-1-methylpyridine], the figures for the Ki in assay [1], in assay [2] (setting [7]) and in assay [4] were 6310 nM, 6310 nM and greater than 10000 nM, respectively. Further, the EC50 in assay [3] (setting [6]) is 1260 nM; in assay [5], 398 nM.

For the compound `C=CCSc1c[nH]nc1C1=CCCN(C)C1` [Compound 22Q, 3-(4-Allylsulfanyl-1H-pyrazol-3-yl)-1,2,5,6-tetrahydro-1-methylpyridine], the values for the Ki in assay [1], in assay [2] (setting [7]) and in assay [4] were 501 nM, 126 nM and 794 nM, respectively. Further, the EC50 in assay [3] (setting [6]) is greater than 10000 nM.

`CN1CCC=C(c2n[nH]cc2SCCC#N)C1` [Compound 22R, 3-[3-(1-Methyl-1,2,5,6-tetrahydro-pyridin-3-yl)-1H-pyrazol-4-ylsulfanyl]-propionitrile]: the Ki in assay [1] is 3980 nM; in assay [2] (setting [7]), 2000 nM; in assay [4] it was 12600 nM. For the same compound, the EC50 in assay [3] (setting [6]) is greater than 10000 nM.

With `CCCCSc1cc(C2=CCCN(C)C2)n[nH]1` [Compound 26, 3-(5-Butylsulfanyl-1H-pyrazol-3-yl)-1,2,5,6-tetrahydro-1-methylpyridine], the results for the Ki in assay [1], in assay [2] (setting [7]) and in assay [4] were 200 nM, 251 nM and 158 nM, respectively. Also, the EC50 in assay [3] (setting [6]) is greater than 10000 nM.

Consider `CCCC(=O)Nc1c[nH]nc1C1=CCCN(C)C1` [Compound 41], for which the Ki in assay [1], in assay [2] (setting [7]) and in assay [4] was greater than 10000 nM in each case. Further, the EC50 in assay [3] (setting [6]) was greater than 10000 nM.

Turning to `CCCCNc1c[nH]nc1C1=CCCN(C)C1` [Compound 42, Butyl-[3-(1-Methyl-1,2,5,6-tetrahydro-pyridin-3-yl)-1H-pyrazol-4-yl]-amine], the Ki in assay [1] is 5010 nM; in assay [2] (setting [7]), 3980 nM; in assay [4] it was 7940 nM. The EC50 in assay [3] (setting [6]) was greater than 10000 nM.

In the case of `CN1CCC=C(c2n[nH]cc2C=Cc2cccc(F)c2)C1` [Compound 47B, 3-{-4-2[-(3-Fluor-Phenyl)-vinyl]-1H-pyrazol-3-yl}-1,2,5,6-tetrahydro-1-methylpyridine], in assay [1], the “RB Musc. M4 3H-DAMP pKi” value is recorded as 6.5. The “RB Musc. M4 3H-Oxotremorine pKi” value in assay [2] (setting [7]) is given as 6.8. Further, the “Cell funct. Musc. M4 Agonism pEC50” value in assay [3] (setting [6]) is reported as less than 5.0. Also, the “RB Musc. M1 3H-Pirenzepine pKi” value in assay [4] turned out to be 6.1.

In the case of `CCCCCSc1c[nH]nc1[C@@H]1CN2CCC[C@H]1C2` [Compound 60A, Endo-6-(4-pentylsulfanyl-1H-Pyrazol-3-yl)-1-azabicyclo[3.2.1]octane], the Ki is 251 nM in assay [1], 63.1 nM in assay [2] (setting [7]) and 398 nM in assay [4]. For the same compound, the EC50 in assay [3] (setting [6]) is greater than 10000 nM.

In the case of `CCCCSc1conc1C1=CCCN(C)C1` [Compound 66A, 3-(4-Butylsulfanyl-isoxazol-3-yl)-1,2,5,6-tetrahydro-1-methylpyridine], the Ki in assay [1] is 39.8 nM; in assay [2] (setting [7]) it was 79.4 nM; in assay [4], 251 nM. Besides, the EC50 in assay [3] (setting [6]) is greater than 10000 nM.

Turning to `CCCCCCSc1conc1C1=CCCN(C)C1` [Compound 66B, 3-(4-Hexylsulfanyl-isoxazol-3-yl)-1,2,5,6-tetrahydro-1-methylpyridine], the values for the Ki in assay [1], in assay [2] (setting [7]) and in assay [4] were 100 nM, 158 nM and 631 nM, respectively. Further, the EC50 in assay [3] (setting [6]) is 501 nM.

In assay [3], `O=C1CCCN1CC#CCN1CCCC1` [oxotremorine, reference compound] had a pEC50 of 7.40.

As a reminder, the pKi is −log10 of the Ki, conventionally taken in molar units. Lower therefore signals a large Ki. The term pEC50 denotes the EC50 on a negative log10 scale, so that one unit is a factor of ten. Low values mean a large EC50, high ones a small EC50.

The record behind these values is US8735388B2, “Heterocyclic compounds with affinity to muscarinic receptors” (Abbvie B. V. A., priority 2007, dated 2014).
